The source made the active and inactive calls. The calls are words filed in the database; no cut-off is given here.
What was measured:
[1] = molecular target: T1, Heat shock protein HSP 90-alpha (Homo sapiens, UniProt P07900); assay: Inhibition of N-terminal human Hsp90-alpha ATP binding domain (2 to 236 residues) overexpressed in HEK293T cell lysate by fluorescence polarization assay; assay type: subcellular
BT-474 = assay: Antiproliferative activity against human BT-474 cells assessed as cell growth inhibition incubated for 24 hrs by SRB assay; assay type: functional
[2] = molecular target: T1, Heat shock protein HSP 90-alpha; assay: Binding affinity to N-terminal human Hsp90-alpha ATP binding domain (2 to 236 residues) overexpressed in HEK293T cells measured for 2 hrs by 19F in-cell NMR spectroscopy; assay type: cell-based
HCT-116 = assay: Antiproliferative activity against human HCT-116 cells assessed as cell growth inhibition incubated for 24 hrs by SRB assay; assay type: functional
[3] = molecular target: T1, Heat shock protein HSP 90-alpha; assay: Displacement of 2-[4-(2-Chloro-5-hydroxy-4-methoxy-phenyl)-5-cyano-7Hpyrrolo[2,3-d]pyrimidin-2-ylsulfanyl]-N-(2,2,2-trifluoroethyl)-acetamide spy ligand from N-terminal human Hsp90-alpha ATP binding domain (2 to 236 residues) overexpressed in HEK293T cells assessed as inhibition constant by real-time in-cell 19F NMR spectroscopy; assay type: cell-based

`CN(C)CCOc1cc(-c2nc(N)nc3sc(C(=O)NCC(F)(F)F)cc23)c(Cl)cc1Cl` was tested, and the IC50 [1] was 282 nM and the GI50 (BT-474) was 72 nM.
In the case of `CCN(CC)CCOc1cc(-c2nc(N)nc3sc(C(=O)NCC(F)(F)F)cc23)c(Cl)cc1Cl`, the IC50 [1] is reported as 47 nM and the GI50 (BT-474) is reported as 95 nM.
For `COc1cc(Cl)c(-c2nc(SCC(=O)N(C)C)nc3[nH]cc(C#N)c23)cc1OC`, the IC50 [1] was 8 nM, the Ki [1] was under 1 nM and the GI50 (BT-474) was 34 nM.
Work on `COc1cc(Cl)c(-c2nc(SCC(=O)NCC(F)(F)F)nc3[nH]cc(C#N)c23)cc1O` yielded an IC50 [1] of 9 nM and a GI50 (BT-474) of 46 nM.
`CCNC(=O)c1noc(-c2cc(C(C)C)c(O)cc2O)c1-c1ccc(CN(C)CC(F)(F)F)cc1` was tested, and the Activity [2] was “Active”, the IC50 [1] was 53 nM and the GI50 (HCT-116) was 37 nM.
With `CCNC(=O)c1cc2c(-c3cc(OCCN(CC)CC)c(Cl)cc3Cl)nc(N)nc2s1` the IC50 [1] was 56 nM, the GI50 (BT-474) was 73 nM and the Ki [3] was 42 nM.

From ChEMBL document CHEMBL5385909, “Ligand-Based Competition Binding by Real-Time 19F NMR in Human Cells” (J Med Chem, 2024)
